Common to all, as to type: cell-based
One experiment concerns A2780 ovarian cells. As to the kind of experiment: A2780 Ovarian Cell Proliferation Assay in Lipid Reduced Medium, with and without Palmitate (MTT). Particulars: Homo sapiens, 10% lipid-reduced serum, 96 h.
Experiment [1] has as its system LNCaP_Vancouver prostate cells. As to the kind of experiment: In Vitro LNCaP Vancouver Prostate Cell Proliferation Assay in Lipid Reduced Medium. The settings on record: Prostate cell; 10% lipid reduced serum, 96 h, ATP-glow luminescence; read-out: pIC50 LNCaP_Vancouver prostate cell (converted). On the procedure: LNCaP_Vancouver prostate cells were obtained from the Vancouver Prostate Cancer Centre.
The next day 10 μl of test compound/DMSO diluted in medium was added (3E-5M, 1E-5M, 3E-6M,1E-6M, 3E-7M, 1E-7M, 3E-8M, 1E-8M final concentration). Compounds were tested in duplicate. After 96 h incubation at 37° C., 5% CO2 25 μl ATP-glow mix was added. The plate was incubated for 30 min at 37° C. and luminescence was measured with the Envision.
(§1) Analysis: Determination of pIC50 Values
(§2) pIC50 values were calculated as follows. Raw data generated by the instruments were normalized to % Controlmin values, which were calculated as: % Controlmin=100*(x−mLC)/(mHC−mLC),
(§3) where mLC and mHC are the means of the low control wells and high control wells on the plate, after manual exclusion of outliers. The relation between the % Controlmin values and concentration was fitted to a 4-parameter logistic curve using a non-linear least squares regression method to determine the pIC50 value. Outlying data points were excluded manually to get a correct fit. The pIC50 corresponds to −log 10(IC50), if the IC50 is expressed in molar units (http://www.ncbi.nlm.nih.qovibooks/NBK91994). The IC50 parameter was always determined by non-linear regression, but one or more of the other parameters may have been held fixed on a relevant input value, such as 0 for the bottom values.

The test system of experiment [2] is PC-3M-Luc-C6 prostate cells. As to the kind of experiment: In Vitro PC-3M-Luc-C6 Prostate Cell Proliferation Assay in Lipid Reduced Medium. The settings on record: Prostate cell, read-out: pIC50 PC-3M-Luc-C6 prostate cell (converted); 10% lipid reduced serum, 96 h, ATP-glow luminescence. How it is done: PC-3M-Luc-C6 prostate cells were obtained from Xenogen Corporation. Cells were maintained in MEM supplemented with 10% Fetal Calf Serum (FCS, Hyclone), 2 mM glutamine, 1 mM sodium pyruvate, 1% BME vitamins (available from for example, Sigma Aldrich), 0.1 mM non Essential Amino Acid and 50 μg/ml Gentamicin. The cells were passaged twice a week.
The next day 10 μl test compound/DMSO diluted in medium was added (3E-5M, 1E-5M, 3E-6M,1E-6M, 3E-7M, 1E-7M, 3E-8M, 1E-8M final concentration). Compounds were tested in duplicate. After 96 h incubation at 37° C., 5% CO2 25 μl ATP-glow mix was added. The plate was incubated for 30 min at 37° C. and luminescence was measured with the Envision.
as §1, §2, §3

Where [3] appears, read: 25 μM palmitate added (control), read-out: pIC50 With Palmitate (converted).
[4] abbreviates: no palmitate, read-out: pIC50 Without Palmitate (converted).

Each structure is given as a SMILES string. Read-outs that look alike come from different tables or passages of the source. Where only a bound is given, the exact number is not on record here.

Turning to `CC1(C)N=C(c2ccc(-c3ccc4cccnc4c3)cc2)N(C[C@@H]2CCN(C(=O)C3CC3)C2)C1=O` [Compound 23], the IC50 with A2780 ovarian cells (setting [3]) is greater than 10000 nM; with A2780 ovarian cells (setting [4]), 75.9 nM; in experiment [1] it was 219 nM; in experiment [2], 53.7 nM.

As to `CC1(C)N=C(c2ccc(-c3ccc4cccnc4c3)cc2)N(CC2CN(C(=O)C3CC3)C2)C1=O` [Compound 24, 1-((1-(cyclopropanecarbonyl)azetidin-3-yl)methyl)-4,4-dimethyl-2-(4-(quinolin-7-yl)phenyl)-1H-imidazol-5(4H)-one], the IC50 with A2780 ovarian cells (setting [3]) is greater than 10000 nM; in the experiment with A2780 ovarian cells (setting [4]), roughly 363 nM; in experiment [1], 1450 nM; in experiment [2], 447 nM.

`CC1(C)N=C(c2ccc(-c3cnc4ccccc4c3)cc2)N(C[C@@H]2CCN(C(=O)C3CC3)C2)C1=O` [Compound 25, (R)-1-((1-(cyclopropanecarbonyl)pyrrolidin-3-yl)methyl)-4,4-dimethyl-2-(4-(quinolin-3-yl)phenyl)-1H-imidazol-5(4H)-one]: the IC50 was greater than 10000 nM with A2780 ovarian cells (setting [3]), 1170 nM with A2780 ovarian cells (setting [4]), 2880 nM in experiment [1] and 891 nM in experiment [2].

`CC1(C)N=C(c2ccc(-c3ccc(-c4ccncc4)cc3)cc2)N(CC2CN(C(=O)C3CC3)C2)C1=O` [Compound 26, 1-((1-(cyclopropanecarbonyl)azetidin-3-yl)methyl)-4,4-dimethyl-2-(4′-(pyridin-4-yl)-[1,1′-biphenyl]-4-yl)-1H-imidazol-5(4H)-one]: the IC50 is greater than 10000 nM in the experiment with A2780 ovarian cells (setting [3]), 1950 nM with A2780 ovarian cells (setting [4]), 3390 nM in experiment [1] and 1000 nM in experiment [2].

`CC1(C)N=C(c2ccc(-c3ccc4cnccc4c3)cc2)N(CC2CN(C(=O)C3CC3)C2)C1=O` [Compound 27, 1-((1-(cyclopropanecarbonyl)azetidin-3-yl)methyl)-2-(4-(isoquinolin-6-yl)phenyl)-4,4-dimethyl-1H-imidazol-5(4H)-one]: the IC50 in the experiment on A2780 ovarian cells (setting [3]) was greater than 10000 nM; with A2780 ovarian cells (setting [4]) it was roughly 316 nM; in experiment [1], 1380 nM; in experiment [2], 324 nM.

On to `CC1(C)N=C(c2ccc(-c3ccc4cnccc4c3)cc2)N(C[C@@H]2CCN(C(=O)C3CC3)C2)C1=O` [Compound 28], for which the IC50 in the experiment on A2780 ovarian cells (setting [3]) is greater than 10000 nM; with A2780 ovarian cells (setting [4]), 58.9 nM; in experiment [1] it was 1580 nM; in experiment [2], 63.1 nM.

As to `CC1(C)N=C(c2ccc(-c3ccc4cc(F)ccc4c3)cc2)N(CC2CN(C(=O)C3CC3)C2)C1=O` [Compound 29, 1-((1-(cyclopropanecarbonyl)azetidin-3-yl)methyl)-2-(4-(6-fluoronaphthalen-2-yl)phenyl)-4,4-dimethyl-1H-imidazol-5(4H)-one], the IC50 is greater than 10000 nM with A2780 ovarian cells (setting [3]), 1230 nM in the experiment with A2780 ovarian cells (setting [4]), roughly 2820 nM in experiment [1] and 1290 nM in experiment [2].

Take `CC1(C)N=C(c2ccc(-c3ccc4cc(F)ccc4c3)cc2)N(C[C@@H]2CCN(C(=O)C3CC3)C2)C1=O` [Compound 30, (R)-1-((1-(cyclopropanecarbonyl)pyrrolidin-3-yl)methyl)-2-(4-(6-fluoronaphthalen-2-yl)phenyl)-4,4-dimethyl-1H-imidazol-6(4H)-one]: the IC50 in the experiment on A2780 ovarian cells (setting [3]) is greater than 10000 nM; with A2780 ovarian cells (setting [4]), 1230 nM; in experiment [1], 3390 nM; in experiment [2], 490 nM.

Take `CC1(C)N=C(c2ccc(-c3cccc4ncccc34)cc2)N(C[C@@H]2CCN(C(=O)C3CC3)C2)C1=O` [Compound 31, (R)-1-((1-(cyclopropanecarbonyl)pyrrolidin-3-yl)methyl)-4,4-dimethyl-2-(4-(quinolin-5-yl)phenyl)-1H-1-imidazol-5(4H)-one]: the IC50 in the experiment on A2780 ovarian cells (setting [3]) is greater than 10000 nM; in the experiment with A2780 ovarian cells (setting [4]), roughly 1000 nM; in experiment [1], 912 nM; in experiment [2], roughly 617 nM.

With `Cn1ncc2cc(-c3ccc(C4=NC(C)(C)C(=O)N4CC4CN(C(=O)C5CC5)C4)c(F)c3)ccc21` [Compound 32, 1-((1-(cyclopropanecarbonyl)azetidin-3-yl)methyl)-2-(2-fluoro-4-(1-methyl-1H-indazol-5-yl)phenyl)-4,4-dimethyl-1H-imidazol-5(4H)-one], the IC50 with A2780 ovarian cells (setting [3]) is greater than 10000 nM; in the experiment on A2780 ovarian cells (setting [4]), 977 nM; in experiment [1], 4680 nM; in experiment [2], 1480 nM.

Regarding `CC1(C)N=C(c2ccc(-c3nc4ccccc4s3)cc2F)N(CC2CN(C(=O)C3CC3)C2)C1=O` [Compound 34, 2-(4-(benzo[d]thiazol-2-yl)-2-fluorophenyl)-1-((1-(cyclopropanecarbonyl)azetidin-3-yl)methyl)-4,4-dimethyl-1H-imidazol-5(4H)-one], the IC50 in the experiment on A2780 ovarian cells (setting [3]) was greater than 10000 nM; with A2780 ovarian cells (setting [4]) it was 1000 nM; in experiment [1], 2630 nM; in experiment [2] it was 832 nM.

Take `CC1(C)N=C(c2ccc(-c3ccc4cccnc4c3)cc2F)N(CC2CN(C(=O)C3CC3)C2)C1=O` [Compound 39, 1-((1-(cyclopropanecarbonyl)azetidin-3-yl)methyl)-2-(2-fluoro-4-(quinolin-7-yl)phenyl)-4,4-dimethyl-1H-imidazol-5(4H)-one]: the IC50 was greater than 10000 nM with A2780 ovarian cells (setting [3]), roughly 91.2 nM with A2780 ovarian cells (setting [4]), 269 nM in experiment [1] and 95.5 nM in experiment [2].

As to `CC1(C)N=C(c2ccc(-c3ccc4cccc(F)c4c3)cc2)N(C[C@@H]2CCN(C(=O)C3CC3)C2)C1=O` [Compound 41, (R)-1-((1-(cyclopropanecarbonyl)pyrrolidin-3-yl)methyl)-2-(4-(8-fluoronaphthalen-2-yl)phenyl)-4,4-dimethyl-1H-imidazol-5(4H)-one], the IC50 was greater than 10000 nM in the experiment on A2780 ovarian cells (setting [3]), roughly 347 nM with A2780 ovarian cells (setting [4]), 1150 nM in experiment [1] and 417 nM in experiment [2].

Take `CC1(C)N=C(c2ccc(-c3ccc4cncnc4c3)cc2)N(C[C@@H]2CCN(C(=O)C3CC3)C2)C1=O` [Compound 42, (R)-1-((1-(cyclopropanecarbonyl)pyrrolidin-3-yl)methyl)-4,4-dimethyl-2-(4-(quinazolin-7-yl)phenyl)-1H-imidazol-5(4H)-one]: the IC50 with A2780 ovarian cells (setting [3]) is greater than 10000 nM; in the experiment with A2780 ovarian cells (setting [4]), roughly 191 nM; in experiment [1] it was 1000 nM; in experiment [2] it was 417 nM.

`CC1(C)N=C(c2ccc(-c3ccc4cncnc4c3)cc2F)N(C[C@@H]2CCN(C(=O)C3CC3)C2)C1=O` [Compound 44, (R)-1-((1-(cyclopropanecarbonyl)pyrrolidin-3-yl)methyl)-2-(2-fluoro-4-(quinazolin-7-yl)phenyl)-4,4-dimethyl-1H-imidazol-5(4H)-one]: the IC50 in the experiment with A2780 ovarian cells (setting [3]) was greater than 10000 nM; with A2780 ovarian cells (setting [4]), 46.8 nM; in experiment [1], 389 nM; in experiment [2], 47.9 nM.

In the case of `Cn1cc(-c2ccc(-c3ccc(C4=NC(C)(C)C(=O)N4C[C@@H]4CCN(C(=O)C5CC5)C4)c(F)c3)cc2)cn1` [Compound 45], the IC50 with A2780 ovarian cells (setting [3]) is greater than 10000 nM; in the experiment on A2780 ovarian cells (setting [4]), 26.3 nM; in experiment [1] it was 117 nM; in experiment [2], 67.6 nM.

Take `CC1(C)N=C(c2ccc(-c3ccc4cccnc4c3)cc2F)N(C[C@@H]2CCN(C(=O)C3CC3)C2)C1=O` [Compound 49, (R)-1-((1-(cyclopropanecarbonyl)pyrrolidin-3-yl)methyl)-2-(2-fluoro-4-(quinolin-7-yl)phenyl)-4,4-dimethyl-1H-imidazol-5(4H)-one]: the IC50 with A2780 ovarian cells (setting [3]) was greater than 10000 nM; in the experiment on A2780 ovarian cells (setting [4]), 14.1 nM; in experiment [1], 200 nM; in experiment [2], roughly 24 nM.

As for `CC1(C)N=C(c2ccc(-c3nc4ccccc4o3)cc2F)N(C[C@@H]2CCN(C(=O)C3CC3)C2)C1=O` [Compound 51, (R)-2-(4-(benzo[d]oxazol-2-yl)-2-fluorophenyl)-1-((1-(cyclopropanecarbonyl)pyrrolidin-3-yl)methyl)-4,4-dimethyl-1H-imidazol-5(4H)-one], the IC50 was greater than 10000 nM in the experiment on A2780 ovarian cells (setting [3]), 288 nM with A2780 ovarian cells (setting [4]), 794 nM in experiment [1] and 324 nM in experiment [2].

As to `CC1(C)N=C(c2ccc(-c3nc4ccccc4o3)cc2F)N(CC2CN(C(=O)C3CC3)C2)C1=O` [Compound 52, 2-(4-(benzo[d]oxazol-2-yl)-2-fluorophenyl)-1-((1-(cyclopropanecarbonyl)azetidin-3-yl)methyl)-4,4-dimethyl-1H-imidazol-5(4H)-one], the IC50 with A2780 ovarian cells (setting [3]) is greater than 10000 nM; with A2780 ovarian cells (setting [4]), 708 nM; in experiment [1], 1290 nM; in experiment [2] it was 776 nM.

Values taken from US10413545B2, “Imidazolin-5-one derivative useful as FASN inhibitors for the treatment of cancer” (Janssen Pharmaceutica NV, priority 2013, dated 2019).
